Test results as given in the NIST ThermoML archive (doi:10.1016/j.jct.2015.03.017).

Assay: mn = molality of the nth substance listed, in mol/kg
Details: 74.66 kPa, Liquid; for speed of sound: Frequency=3 MHz, Sing-around technique in a fixed-path interferometer; for mass density: Vibrating tube method

CCCC[N+](CCCC)(CCCC)CCCC.[Br-] [tetrabutylammonium bromide] + O
Details	mass density, 278.15 K [kg/m3]	mass density, 283.15 K [kg/m3]	mass density, 288.15 K [kg/m3]	mass density, 293.15 K [kg/m3]	speed of sound, 278.15 K [m/s]	speed of sound, 283.15 K [m/s]	speed of sound, 288.15 K [m/s]	speed of sound, 293.15 K [m/s]	speed of sound, 298.15 K [m/s]
m1 = 0.01142	1000.27	999.991	999.38	998.474	1432	1452.5	1470.9	1487.1	1501.3
m1 = 0.02179	1000.55	1000.26	999.637	998.721	–	–	–	–	–
m1 = 0.02564	1000.66	1000.36	999.733	998.812	1436.7	1457.5	1475.5	1491.3	1504.8
m1 = 0.03767	1000.97	1000.66	1000.02	999.087	1439.6	1459.7	1477.4	1492.9	1506.4
m1 = 0.0459	1001.19	1000.87	1000.23	999.287	1442.7	1462.5	1480.1	1495.5	1508.9
m1 = 0.05856	1001.55	1001.21	1000.54	999.585	1446.1	1465.7	1482.9	1498.1	1511.7
m1 = 0.0711	1001.86	1001.51	1000.83	999.857	1450	1469.4	1486.4	1501.3	1514.3
m1 = 0.07968	1002.09	1001.73	1001.04	1000.05	1453	1472.2	1489.1	1504	1516.9
m1 = 0.09066	1002.42	1002.04	1001.33	1000.34	1455.7	1474.4	1491	1505.4	1517.9
m1 = 0.1003	1002.67	1002.28	1001.54	1000.54	1458	1476.6	1493	1507.3	1519.7

CCC(C)[N+](C(C)CC)(C(C)CC)C(C)CC.[Br-] (stereo unspecified) [tetra-sec-butyl ammonium bromide] + O
Details	mass density, 278.15 K [kg/m3]	mass density, 283.15 K [kg/m3]	mass density, 288.15 K [kg/m3]	mass density, 293.15 K [kg/m3]	speed of sound, 278.15 K [m/s]	speed of sound, 283.15 K [m/s]	speed of sound, 288.15 K [m/s]	speed of sound, 293.15 K [m/s]	speed of sound, 298.15 K [m/s]
m1 = 0.009699	1000.43	1000.15	999.553	998.653	1429.9	1450.7	1469	1485.1	1499
m1 = 0.01981	1000.92	1000.64	1000.03	999.127	1432.6	1453.1	1471.2	1487.4	1500.9
m1 = 0.03014	–	–	–	–	1435.2	1455.5	1473.4	1489.2	1503
m1 = 0.04066	1002	1001.68	1001.04	1000.12	1438.2	1458.2	1475.9	1491.5	1505.2
m1 = 0.04983	1002.49	1002.14	1001.5	1000.59	1440.2	1460.1	1477.6	1493.1	1506.5
m1 = 0.0598	1003.02	1002.66	1002	1001.08	1443.3	1463	1480.4	1495.4	1508.3
m1 = 0.07027	1003.58	1003.21	1002.55	1001.63	1445.7	1465.7	1483.2	1497.7	1510.9
m1 = 0.07997	1004.11	1003.75	1003.08	1002.12	1448.5	1468.4	1485	1499.7	1512
m1 = 0.08984	1004.68	1004.31	1003.61	1002.64	1451.4	1471.3	1488	1501.6	1514.2
m1 = 0.1018	1005.32	1004.97	1004.26	1003.28	1454.9	1474.9	1490.9	1504	1516

CC(C)C[N+](CC(C)C)(CC(C)C)CC(C)C.[Br-] [tetra-iso-butyl ammonium bromide] + O
Details	mass density, 278.15 K [kg/m3]	mass density, 283.15 K [kg/m3]	mass density, 288.15 K [kg/m3]	mass density, 293.15 K [kg/m3]	speed of sound, 278.15 K [m/s]	speed of sound, 283.15 K [m/s]	speed of sound, 288.15 K [m/s]	speed of sound, 293.15 K [m/s]	speed of sound, 298.15 K [m/s]
m1 = 0.01022	1000.51	1000.24	999.634	998.735	–	–	–	–	–
m1 = 0.02021	1001.05	1000.77	1000.16	999.258	1434	1454.4	1472.5	1488.5	1502.6
m1 = 0.02983	1001.57	1001.29	1000.67	999.758	1437	1457	1475	1490.5	1503.3
m1 = 0.03847	1002.04	1001.75	1001.12	1000.21	1438.5	1458.5	1476.2	1491.8	1505.5
m1 = 0.04829	1002.57	1002.27	1001.63	1000.71	1441.3	1461.2	1478.9	1494.5	1508.1
m1 = 0.05621	1002.99	1002.68	1002.04	1001.11	1443.4	1463.6	1480.5	1495.7	1509.7
m1 = 0.06888	1003.67	1003.34	1002.7	1001.76	1447	1466.5	1483.8	1498.9	1512.2
m1 = 0.07666	1004.08	1003.76	1003.1	1002.16	1448.2	1467.5	1484.6	1499.7	1512.9
m1 = 0.08623	1004.6	1004.26	1003.6	1002.64	1451.5	1469.4	1486.2	1500.9	1513.8
m1 = 0.1002	1005.35	1005	1004.33	1003.37	1453.7	1472.5	1489.2	1503.9	1516.7

CCCC[N+](CCCC)(CC(C)C)CC(C)C.[Br-] [N-butyl-N,N-bis(2-methylpropyl)-1-butanaminium bromide] + O
Details	mass density, 278.15 K [kg/m3]	mass density, 283.15 K [kg/m3]	mass density, 288.15 K [kg/m3]	mass density, 293.15 K [kg/m3]	speed of sound, 278.15 K [m/s]	speed of sound, 283.15 K [m/s]	speed of sound, 288.15 K [m/s]	speed of sound, 293.15 K [m/s]	speed of sound, 298.15 K [m/s]
m1 = 0.01065	1000.5	1000.23	999.628	998.731	1431.7	1452	1469.2	1485.3	1499.3
m1 = 0.01998	1000.98	1000.71	1000.11	999.207	1433.3	1453.7	1471.8	1487.8	1501.8
m1 = 0.0287	1001.44	1001.16	1000.55	999.654	1435.3	1455.5	1473.4	1489.1	1502.9
m1 = 0.03816	1001.92	1001.65	1001.04	1000.13	–	–	–	–	–
m1 = 0.04991	1002.55	1002.27	1001.65	1000.74	1440.2	1460	1477.6	1493	1506.5
m1 = 0.05935	1003.05	1002.75	1002.13	1001.22	1443	1462.6	1479.9	1495.1	1508.5
m1 = 0.06884	1003.54	1003.25	1002.62	1001.71	1446.3	1465.8	1483.1	1498.3	1511.6
m1 = 0.08078	1004.18	1003.88	1003.25	1002.33	1449	1468.1	1485.2	1500.2	1513.4
m1 = 0.0922	1004.77	1004.47	1003.83	1002.91	1451.4	1470.1	1486.8	1501.5	1514.3
m1 = 0.1044	1005.43	1005.11	1004.46	1003.53	1453.6	1472.4	1488.9	1503.4	1516

CCCC[N+](CCCC)(C(C)CC)C(C)CC.[Br-] (stereo unspecified) [N-butyl-N,N-bis(1-methylpropyl)-1-butanaminium bromide] + O
Details	mass density, 278.15 K [kg/m3]	mass density, 283.15 K [kg/m3]	mass density, 288.15 K [kg/m3]	mass density, 293.15 K [kg/m3]	speed of sound, 278.15 K [m/s]	speed of sound, 283.15 K [m/s]	speed of sound, 288.15 K [m/s]	speed of sound, 293.15 K [m/s]	speed of sound, 298.15 K [m/s]
m1 = 0.01181	1000.58	1000.3	999.698	998.799	1431.4	1452	1470.2	1486.2	1500.2
m1 = 0.02026	1001.03	1000.75	1000.13	999.231	1433.3	1453.8	1472	1488	1502.1
m1 = 0.03102	1001.6	1001.32	1000.7	999.791	1435.8	1456.1	1474.1	1489.9	1503.9
m1 = 0.04017	1002.1	1001.81	1001.19	1000.28	1438.2	1458.3	1476	1491.6	1505.3
m1 = 0.05043	1002.66	1002.36	1001.73	1000.81	1440	1459.8	1477.4	1492.9	1506.4
m1 = 0.0598	1003.17	1002.87	1002.24	1001.32	1442.6	1462.2	1479.5	1494.8	1508.4
m1 = 0.06968	1003.71	1003.41	1002.76	1001.84	1445	1464.4	1481.6	1496.6	1509.9
m1 = 0.08191	1004.37	1004.06	1003.42	1002.5	1447.4	1466.7	1483.7	1498.7	1511.8
m1 = 0.09038	1004.85	1004.53	1003.89	1002.96	1450.6	1469.6	1486.4	1501.1	1514
m1 = 0.1036	1005.56	1005.25	1004.59	1003.66	1453.5	1472.2	1488.9	1503.7	1516.5
